In patent US20200017496A1 (priority 2017, published 2020):

Key:
[1] = test system: Klebsiella oxytoca (KOX) isolates; experiment: MIC of compounds alone and combined with antibacterials, broth microdilution (CLSI); format: cell-based
Outline: (§1)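 Log-phase bacteria at a final 5·10^5 CFU/mL in cation-adjusted Mueller-Hinton broth were incubated 16-20 h at 35° C in ambient air with compound alone or with an antibacterial. MIC was the lowest concentration preventing visible growth; combination MIC of the antibacterial was read at each compound concentration.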

[2] = test system: Klebsiella pneumoniae (KPN) isolates; experiment: as above; format: cell-based
Outline: as §1

CC(C)(O/N=C(\C(=O)N[C@@H]1C(=O)N2C(C(=O)[O-])=C(C[n+]3ccccc3)CS[C@H]12)c1csc(N)n1)C(=O)O [CAZ, Ceftazidime]
MIC ATB in combination ([1]; KOX UFR21, AF1 @ 4 μg/mL): 2 µg/mL
MIC ATB in combination ([1]; KOX UFR21, AF1 @ 8 μg/mL): <=0.25 μg/mL
MIC ATB in combination ([1]; KOX UFR173, AF1 @ 8 μg/mL): <=0.25 μg/mL
MIC ATB in combination ([1]; KOX UFR223, AF1 @ 4 μg/mL): <=0.25 μg/mL
MIC ATB in combination ([1]; KOX UFR223, AF1 @ 8 μg/mL): <=0.25 μg/mL
MIC ATB in combination ([1]; KOX UFR224, AF1 @ 4 μg/mL): <=0.25 μg/mL
MIC ATB in combination ([1]; KOX UFR224, AF1 @ 8 μg/mL): <=0.25 μg/mL
MIC ([1]; Klebsiella oxytoca, strain KOX UFR173 (OXY2-2), ATB alone, read-out: MIC): 8 µg/mL
MIC ATB in combination ([2]; KPN 6299, AF1 @ 4 μg/mL): 0.5 µg/mL
MIC ATB in combination ([2]; KPN 6299, AF1 @ 8 μg/mL): <=0.25 μg/mL
MIC ATB in combination ([2]; KPN 110376, AF1 @ 4 μg/mL): <=0.25 μg/mL
MIC ATB in combination ([2]; KPN 110376, AF1 @ 8 μg/mL): <=0.25 μg/mL
MIC ATB in combination ([2]; KPN 131119, AF1 @ 4 μg/mL): 0.5 µg/mL
MIC ATB in combination ([2]; KPN 131119, AF1 @ 8 μg/mL): <=0.25 μg/mL
MIC ATB in combination ([2]; KPN 140513, AF1 @ 4 μg/mL): 16 µg/mL
MIC ATB in combination ([2]; KPN 140513, AF1 @ 8 μg/mL): 2 µg/mL
MIC ATB in combination ([2]; KPN 160143, AF1 @ 4 μg/mL): 1 µg/mL
MIC ATB in combination ([2]; KPN 160143, AF1 @ 8 μg/mL): <=0.25 μg/mL
MIC ATB in combination ([2]; KPN 190128, AF1 @ 4 μg/mL): 0.5 µg/mL
MIC ATB in combination ([2]; KPN 190128, AF1 @ 8 μg/mL): <=0.25 μg/mL
MIC ATB in combination ([2]; KPN 190270, AF1 @ 4 μg/mL): 0.5 µg/mL
MIC ATB in combination ([2]; KPN 190270, AF1 @ 8 μg/mL): <=0.25 μg/mL
MIC ATB in combination ([2]; KPN 190425, AF1 @ 4 μg/mL): <=0.25 μg/mL
MIC ATB in combination ([2]; KPN 190425, AF1 @ 8 μg/mL): <=0.25 μg/mL
MIC ATB in combination ([2]; KPN 190551, AF1 @ 4 μg/mL): <=0.25 μg/mL
MIC ATB in combination ([2]; KPN 190551, AF1 @ 8 μg/mL): <=0.25 μg/mL
MIC ATB in combination ([2]; KPN 200047, AF1 @ 4 μg/mL): <=0.25 μg/mL
MIC ATB in combination ([2]; KPN 200047, AF1 @ 8 μg/mL): <=0.25 μg/mL
MIC ATB in combination ([2]; KPN 200327, AF1 @ 4 μg/mL): <=0.25 μg/mL
MIC ATB in combination ([2]; KPN 200327, AF1 @ 8 μg/mL): <=0.25 μg/mL
MIC ATB in combination ([2]; KPN 260251, AF1 @ 4 μg/mL): 1 µg/mL
MIC ATB in combination ([2]; KPN 260251, AF1 @ 8 μg/mL): <=0.25 μg/mL
MIC ATB in combination ([2]; KPN 260252, AF1 @ 4 μg/mL): 32 µg/mL
MIC ATB in combination ([2]; KPN 260252, AF1 @ 8 μg/mL): 8 µg/mL
MIC ATB in combination ([2]; KPN 260376, AF1 @ 4 μg/mL): <=0.25 μg/mL
MIC ATB in combination ([2]; KPN 260376, AF1 @ 8 μg/mL): <=0.25 μg/mL
MIC ATB in combination ([2]; KPN 270077, AF1 @ 4 μg/mL): <=0.25 μg/mL
MIC ATB in combination ([2]; KPN 270077, AF1 @ 8 μg/mL): <=0.25 μg/mL
MIC ATB in combination ([2]; KPN 700603, AF1 @ 4 μg/mL): 1 µg/mL
MIC ATB in combination ([2]; KPN 700603, AF1 @ 8 μg/mL): <=0.25 μg/mL
MIC ATB in combination ([2]; KPN ARA, AF1 @ 4 μg/mL): <=0.25 μg/mL
MIC ATB in combination ([2]; KPN ARA, AF1 @ 8 μg/mL): <=0.25 μg/mL
MIC ATB in combination ([2]; KPN BAA-1898, AF1 @ 4 μg/mL): 1 µg/mL
MIC ATB in combination ([2]; KPN BAA-1898, AF1 @ 8 μg/mL): <=0.25 μg/mL
MIC ATB in combination ([2]; KPN LIB, AF1 @ 4 μg/mL): <=0.25 μg/mL
MIC ATB in combination ([2]; KPN LIB, AF1 @ 8 μg/mL): <=0.25 μg/mL
MIC ATB in combination ([2]; KPN UFR22_O, AF1 @ 4 μg/mL): <=0.25 μg/mL
MIC ATB in combination ([2]; KPN UFR22_O, AF1 @ 8 μg/mL): <=0.25 μg/mL
MIC ATB in combination ([2]; KPN UFR23, AF1 @ 4 μg/mL): <=0.25 μg/mL
MIC ATB in combination ([2]; KPN UFR23, AF1 @ 8 μg/mL): <=0.25 μg/mL
MIC ATB in combination ([2]; KPN UFR24, AF1 @ 4 μg/mL): 1 µg/mL
MIC ATB in combination ([2]; KPN UFR24, AF1 @ 8 μg/mL): 0.5 µg/mL
MIC ATB in combination ([2]; KPN UFR25, AF1 @ 4 μg/mL): 0.5 µg/mL
MIC ATB in combination ([2]; KPN UFR25, AF1 @ 8 μg/mL): <=0.25 μg/mL
MIC ATB in combination ([2]; KPN UFR27, AF1 @ 4 μg/mL): 4 µg/mL
MIC ATB in combination ([2]; KPN UFR27, AF1 @ 8 μg/mL): 0.5 µg/mL
MIC ATB in combination ([2]; KPN UFR28, AF1 @ 4 μg/mL): <=0.25 μg/mL
MIC ATB in combination ([2]; KPN UFR28, AF1 @ 8 μg/mL): <=0.25 μg/mL
MIC ATB in combination ([2]; KPN UFR65, AF1 @ 4 μg/mL): 2 µg/mL
MIC ATB in combination ([2]; KPN UFR65, AF1 @ 8 μg/mL): <=0.25 μg/mL
MIC ATB in combination ([2]; KPN UFR66, AF1 @ 4 μg/mL): 8 µg/mL
MIC ATB in combination ([2]; KPN UFR66, AF1 @ 8 μg/mL): <=0.25 μg/mL
MIC ATB in combination ([2]; KPN UFR67, AF1 @ 4 μg/mL): 16 µg/mL
MIC ATB in combination ([2]; KPN UFR67, AF1 @ 8 μg/mL): 4 µg/mL
MIC ATB in combination ([2]; KPN UFR68, AF1 @ 4 μg/mL): 4 µg/mL
MIC ATB in combination ([2]; KPN UFR68, AF1 @ 8 μg/mL): 1 µg/mL
MIC ATB in combination ([2]; KPN UFR76, AF1 @ 4 μg/mL): 16 µg/mL
MIC ATB in combination ([2]; KPN UFR76, AF1 @ 8 μg/mL): 16 µg/mL
MIC ATB in combination ([2]; KPN UFR77, AF1 @ 4 μg/mL): 4 µg/mL
MIC ATB in combination ([2]; KPN UFR77, AF1 @ 8 μg/mL): 2 µg/mL
MIC ATB in combination ([2]; KPN UFR78, AF1 @ 8 μg/mL): 32 µg/mL
MIC ATB in combination ([2]; KPN UFR79, AF1 @ 4 μg/mL): 2 µg/mL
MIC ATB in combination ([2]; KPN UFR79, AF1 @ 8 μg/mL): 1 µg/mL
MIC ATB in combination ([2]; KPN UFR80, AF1 @ 4 μg/mL): <=0.25 μg/mL
MIC ATB in combination ([2]; KPN UFR80, AF1 @ 8 μg/mL): <=0.25 μg/mL
